Experimental data as given in PubChem BioAssay (NCI).
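Where inhibition never reached the appropriate level, the endpoint shown equals the highest concentration tested. Otherwise, values were interpolated linearly from a five-concentration, 48-hour dose response in 96-well plates. GI50: concentration for 50% inhibition of growth. TGI: total growth inhibition.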

Assays:
Assay in all cases: inhibition of tumour cell growth, NCI panel, 48 h
SN12C renal = test system: SN12C renal
DU-145 prostate = test system: DU-145 prostate
HOP-92 NSCLC = test system: HOP-92 NSCLC
SW-620 colon = test system: SW-620 colon
MCF7 breast = test system: MCF7 breast
SF-295 CNS = test system: SF-295 CNS
U251 CNS = test system: U251 CNS
COLO 205 colon = test system: COLO 205 colon
OVCAR-3 ovarian = test system: OVCAR-3 ovarian
UACC-257 melanoma = test system: UACC-257 melanoma
MDA-MB-468 breast = test system: MDA-MB-468 breast
MDA-MB-231 breast = test system: MDA-MB-231 breast
HCC-2998 colon = test system: HCC-2998 colon
SNB-75 CNS = test system: SNB-75 CNS
T-47D breast = test system: T-47D breast
OVCAR-8 ovarian = test system: OVCAR-8 ovarian
NCI-H460 lung = test system: NCI-H460 lung
BT-549 breast = test system: BT-549 breast
NCI/ADR-RES ovarian = test system: NCI/ADR-RES ovarian
RPMI-8226 leukemia = test system: RPMI-8226 leukemia
SF-539 CNS = test system: SF-539 CNS
M14 melanoma = test system: M14 melanoma
K-562 leukemia = test system: K-562 leukemia
CAKI-1 renal = test system: CAKI-1 renal
LOX IMVI melanoma = test system: LOX IMVI melanoma
A549 NSCLC = test system: A549 NSCLC
MOLT-4 leukemia = test system: MOLT-4 leukemia
PC-3 prostate = test system: PC-3 prostate
MDA-MB-435 = test system: MDA-MB-435
SK-OV-3 ovarian = test system: SK-OV-3 ovarian
UACC-62 melanoma = test system: UACC-62 melanoma
NCI-H522 lung = test system: NCI-H522 lung
KM12 colon = test system: KM12 colon
HL-60(TB) leukemia = test system: HL-60(TB) leukemia
IGROV1 ovarian = test system: IGROV1 ovarian
HCT-15 colon = test system: HCT-15 colon
HOP-62 NSCLC = test system: HOP-62 NSCLC
SF-268 CNS = test system: SF-268 CNS
UO-31 renal = test system: UO-31 renal
HS 578T breast = test system: HS 578T breast
ACHN renal = test system: ACHN renal
EKVX NSCLC = test system: EKVX NSCLC
SNB-19 CNS = test system: SNB-19 CNS
OVCAR-4 ovarian = test system: OVCAR-4 ovarian
RXF 393 renal = test system: RXF 393 renal
NCI-H23 lung = test system: NCI-H23 lung
A498 renal = test system: A498 renal
SK-MEL-2 melanoma = test system: SK-MEL-2 melanoma
SK-MEL-28 melanoma = test system: SK-MEL-28 melanoma
OVCAR-5 ovarian = test system: OVCAR-5 ovarian
CCRF-CEM leukemia = test system: CCRF-CEM leukemia
MALME-3M melanoma = test system: MALME-3M melanoma
HCT-116 colon = test system: HCT-116 colon
SK-MEL-5 melanoma = test system: SK-MEL-5 melanoma
TK-10 renal = test system: TK-10 renal
786-0 renal = test system: 786-0 renal
NCI-H226 lung = test system: NCI-H226 lung
SR leukemia = test system: SR leukemia
HT29 colon = test system: HT29 colon

## COc1ccc(C(=O)/C=C/c2cc(F)cc(C(F)(F)F)c2)cc1S(N)(=O)=O
SN12C renal
  GI50: 1.88 µM
  TGI: 4.59 µM
DU-145 prostate
  GI50: 12 µM
  TGI: 25 µM
HOP-92 NSCLC
  GI50: 6.32 µM
  TGI: 21.4 µM
SW-620 colon
  GI50: 1.81 µM
  TGI: 3.55 µM
MCF7 breast
  GI50: 1.69 µM
  TGI: 4.42 µM
SF-295 CNS
  GI50: 3.62 µM
  TGI: 13.4 µM
U251 CNS
  GI50: 1.75 µM
  TGI: 3.79 µM
COLO 205 colon
  GI50: 3.79 µM
  TGI: 13.2 µM
OVCAR-3 ovarian
  GI50: 3.62 µM
  TGI: 11.9 µM
UACC-257 melanoma
  GI50: 11.3 µM
  TGI: 25.8 µM
MDA-MB-468 breast
  GI50: 1.66 µM
  TGI: 3.34 µM
MDA-MB-231 breast
  GI50: 2.06 µM
  TGI: 4.81 µM
HCC-2998 colon
  GI50: 1.98 µM
  TGI: 3.71 µM
SNB-75 CNS
  GI50: 2.45 µM
  TGI: 13.2 µM
T-47D breast
  GI50: 11 µM
  TGI: 25.8 µM
OVCAR-8 ovarian
  GI50: 3.21 µM
  TGI: 11.4 µM
NCI-H460 lung
  GI50: 3.41 µM
  TGI: 11.8 µM
BT-549 breast
  GI50: 6.4 µM
  TGI: 19.5 µM
NCI/ADR-RES ovarian
  GI50: 2.16 µM
  TGI: 5.44 µM
RPMI-8226 leukemia
  GI50: 2.13 µM
  TGI: 7.47 µM
SF-539 CNS
  GI50: 1.73 µM
  TGI: 3.17 µM
M14 melanoma
  GI50: 3.14 µM
  TGI: 11.2 µM
K-562 leukemia
  GI50: 2.05 µM
  TGI: > 100 µM
CAKI-1 renal
  GI50: 4.65 µM
  TGI: 17.7 µM
LOX IMVI melanoma
  GI50: 1.42 µM
  TGI: 2.72 µM
A549 NSCLC
  GI50: 4.3 µM
  TGI: 23.1 µM
MOLT-4 leukemia
  GI50: 2.44 µM
  TGI: 9.1 µM
PC-3 prostate
  GI50: 2.48 µM
  TGI: 7.3 µM
MDA-MB-435
  GI50: 2.02 µM
  TGI: 4.91 µM
SK-OV-3 ovarian
  GI50: 15.7 µM
  TGI: 31.8 µM
UACC-62 melanoma
  GI50: 3.28 µM
  TGI: 13.6 µM
NCI-H522 lung
  GI50: 1.9 µM
  TGI: 3.98 µM
KM12 colon
  GI50: 1.96 µM
  TGI: 4.08 µM
HL-60(TB) leukemia
  GI50: 2.33 µM
  TGI: 8.4 µM
IGROV1 ovarian
  GI50: 3.15 µM
  TGI: 11.6 µM
HCT-15 colon
  GI50: 1.59 µM
  TGI: 3.39 µM
HOP-62 NSCLC
  GI50: 7.34 µM
  TGI: 22.2 µM
SF-268 CNS
  GI50: 12 µM
  TGI: 43.3 µM
UO-31 renal
  GI50: 1.94 µM
  TGI: 5.1 µM
HS 578T breast
  GI50: 15.9 µM
  TGI: 54.9 µM
ACHN renal
  GI50: 1.72 µM
  TGI: 3.28 µM
EKVX NSCLC
  GI50: 5.07 µM
  TGI: 18.3 µM
SNB-19 CNS
  GI50: 3.07 µM
  TGI: 11.3 µM
OVCAR-4 ovarian
  GI50: 5.86 µM
  TGI: 18.7 µM
RXF 393 renal
  GI50: 3.97 µM
  TGI: 16.1 µM
NCI-H23 lung
  GI50: 2.23 µM
  TGI: 5.48 µM
A498 renal
  GI50: 13.9 µM
  TGI: 26.8 µM
SK-MEL-2 melanoma
  GI50: 15.5 µM
  TGI: 31.2 µM
SK-MEL-28 melanoma
  GI50: 2.63 µM
  TGI: 7.2 µM
OVCAR-5 ovarian
  GI50: 7.88 µM
  TGI: 20.6 µM
CCRF-CEM leukemia
  GI50: 1.5 µM
  TGI: 6.79 µM
MALME-3M melanoma
  GI50: 12.1 µM
  TGI: 24.7 µM
HCT-116 colon
  GI50: 1.58 µM
  TGI: 3.39 µM
SK-MEL-5 melanoma
  GI50: 5.52 µM
  TGI: 17.9 µM
TK-10 renal
  GI50: 4.69 µM
  TGI: 18.5 µM
786-0 renal
  GI50: 1.84 µM
  TGI: 3.79 µM
NCI-H226 lung
  GI50: 8.55 µM
  TGI: 23.6 µM

## O=C(CSc1nc2ccccc2c(=O)n1-c1ccc(Cl)cc1)Nc1ccc(-c2nc3ccccc3[nH]2)cc1
SN12C renal
  GI50: 1.73 µM
  TGI: 3.3 µM
DU-145 prostate
  GI50: 2.12 µM
  TGI: 4.76 µM
HOP-92 NSCLC
  GI50: 1.66 µM
  TGI: 5.33 µM
SW-620 colon
  GI50: 1.84 µM
  TGI: 3.63 µM
MCF7 breast
  GI50: 1.31 µM
  TGI: 2.85 µM
SF-295 CNS
  GI50: 3.3 µM
  TGI: 11.8 µM
U251 CNS
  GI50: 1.84 µM
  TGI: 3.23 µM
COLO 205 colon
  GI50: 2.52 µM
  TGI: 8.14 µM
OVCAR-3 ovarian
  GI50: 2.05 µM
  TGI: 4.3 µM
UACC-257 melanoma
  GI50: 1.94 µM
  TGI: 4.55 µM
MDA-MB-468 breast
  GI50: 1.9 µM
  TGI: 4.7 µM
MDA-MB-231 breast
  GI50: 1.91 µM
  TGI: 3.86 µM
HCC-2998 colon
  GI50: 3.12 µM
  TGI: 11.6 µM
SNB-75 CNS
  GI50: 1.71 µM
  TGI: 6.04 µM
T-47D breast
  GI50: 1.78 µM
  TGI: 3.56 µM
OVCAR-8 ovarian
  GI50: 1.83 µM
  TGI: 3.66 µM
NCI-H460 lung
  GI50: 1.77 µM
  TGI: 3.38 µM
BT-549 breast
  GI50: 5.33 µM
  TGI: 17.5 µM
NCI/ADR-RES ovarian
  GI50: 2.49 µM
  TGI: 7.35 µM
RPMI-8226 leukemia
  GI50: 2.78 µM
  TGI: 10.1 µM
SF-539 CNS
  GI50: 2.11 µM
  TGI: 4.89 µM
M14 melanoma
  GI50: 2.48 µM
  TGI: 7.06 µM
K-562 leukemia
  GI50: 3.02 µM
  TGI: 11.5 µM
CAKI-1 renal
  GI50: 4.51 µM
  TGI: 15.6 µM
SR leukemia
  GI50: 1.42 µM
  TGI: 7.77 µM
LOX IMVI melanoma
  GI50: 1.55 µM
  TGI: 2.89 µM
A549 NSCLC
  GI50: 1.57 µM
  TGI: 3.01 µM
MOLT-4 leukemia
  GI50: 3.47 µM
  TGI: 18.1 µM
PC-3 prostate
  GI50: 3.01 µM
  TGI: 10.9 µM
MDA-MB-435
  GI50: 2.05 µM
  TGI: 4.53 µM
HT29 colon
  GI50: 2.1 µM
  TGI: 4.46 µM
SK-OV-3 ovarian
  GI50: 10.2 µM
  TGI: 21.9 µM
UACC-62 melanoma
  GI50: 1.99 µM
  TGI: 4.59 µM
NCI-H522 lung
  GI50: 1.95 µM
  TGI: 4.54 µM
KM12 colon
  GI50: 10.9 µM
  TGI: 40 µM
HL-60(TB) leukemia
  GI50: 6.92 µM
  TGI: 21.7 µM
IGROV1 ovarian
  GI50: 3.04 µM
  TGI: 12.5 µM
HCT-15 colon
  GI50: 1.57 µM
  TGI: 3.77 µM
HOP-62 NSCLC
  GI50: 2 µM
  TGI: 4.11 µM
SF-268 CNS
  GI50: 3.67 µM
  TGI: 15.7 µM
UO-31 renal
  GI50: 2.03 µM
  TGI: 5.4 µM
HS 578T breast
  GI50: 2.12 µM
  TGI: 4.82 µM
ACHN renal
  GI50: 3.28 µM
  TGI: 10.7 µM
EKVX NSCLC
  GI50: 3.95 µM
  TGI: 14.8 µM
SNB-19 CNS
  GI50: 2.22 µM
  TGI: 5.28 µM
OVCAR-4 ovarian
  GI50: 1.88 µM
  TGI: 3.94 µM
RXF 393 renal
  GI50: 2.09 µM
  TGI: 5.31 µM
NCI-H23 lung
  GI50: 2.24 µM
  TGI: 5.89 µM
A498 renal
  GI50: 15.9 µM
  TGI: 29.3 µM
SK-MEL-2 melanoma
  GI50: 3.06 µM
  TGI: 11.9 µM
SK-MEL-28 melanoma
  GI50: 1.82 µM
  TGI: 3.43 µM
OVCAR-5 ovarian
  GI50: 3.12 µM
  TGI: 13.7 µM
CCRF-CEM leukemia
  GI50: 4.39 µM
  TGI: 19.5 µM
MALME-3M melanoma
  GI50: 1.96 µM
  TGI: 4.47 µM
HCT-116 colon
  GI50: 1.91 µM
  TGI: 3.65 µM
SK-MEL-5 melanoma
  GI50: 3.62 µM
  TGI: 12.8 µM
TK-10 renal
  GI50: 1.85 µM
  TGI: 3.64 µM
786-0 renal
  GI50: 1.88 µM
  TGI: 3.69 µM
NCI-H226 lung
  GI50: 9 µM
  TGI: 22.5 µM
